# Measurements as given in patent US11679107B2 (Eisai R&D Management Co., Ltd., priority 2018, dated 2023).
# Like-named read-outs stand apart in the source and are kept apart here.
# Legend:
# [1] = system: Ad2 variant pre-mRNAs spliced in HeLa S3 nuclear extracts; assay: In vitro splicing assay (IVS), RT-qPCR of spliced product; assay type: biochemical; conditions: for IC50: geometric mean; for Ratio Ad2.1/2.2: ratio of IVS IC50 Ad2.1 to Ad2.2
# Protocol: (§1) Batch immobilization of anti-SF3B1 antibody (MBL) to anti-mouse PVT SPA scintillation beads (PerkinElmer) was prepared as follows: for every 2.5 mg of nuclear extracts, 5 μg anti-SF3B1 antibody and 1.5 mg of beads were mixed in 150 μl PBS. The antibody-bead mixture was incubated for 30 min at RT and centrifuged at 18,000 g for 5 min. 150 μl PBS was used to resuspend every 1.5 mg antibody-bead mixture. The beads were suspended and added to the prepared nuclear extracts. The slurry was incubated for 2 h at 4° C. with gentle mixing. The beads were then collected by centrifuging at 18,000 g for 5 min, and washed twice with PBS+0.1% Triton X-100. After a final centrifugation step, every 1.5 mg of beads was suspended with 150 μl of PBS. The SF3b complexes were tested for [^3H]-labelled pladienolide probe binding ([^3H]—PB), synthesized as previously described (Kotake et al., 2007). 100 μl binding reactions were prepared with 50 μl bead slurry and by adding varying concentrations of PB or PB—OH, and after 30 min pre-incubation, 2.5 nM [^3H]—PB was added. The mixture was incubated for 30 min, and luminescence signals were read using a MicroBeta2 Plate Counter (PerkinElmer). Prism 6 (Graphpad) was used for non-linear regression curve fitting of the data. • a. • b. HeLa nuclear extract preparation (for in vitro splicing modulation assay below) • c. HeLa S3 cell pellets were resuspended in hypotonic buffer (10 mM HEPES pH 7.9, 1.5 mM MgCl2, 10 mM KCl, 0.2 mM PMSF, and 0.5 mM DTT) and the suspension was brought up to a total of 5 packed cell volume (PCV). After centrifugation, the supernatant was discarded, and the cells were brought up to 3 PCV with hypotonic buffer and incubated on ice for 10 minutes. Cells were lysed using a dounce homogenizer and then centrifuged. The supernatant was discarded, and the pellet was resuspended with ½ packed nuclear volume (PNV) of low salt buffer (20 mM HEPES pH 7.9, 1.5 mM MgCl2, 20 mM KCl, 0.2 mM EDTA, 25% glycerol, 0.2 mM PMSF, 0.5 mM DTT), followed by ½ PNV of high salt buffer (same as low salt buffer except 1.4 M KCl was used). The nuclei were gently mixed for 30 minutes before centrifuging. The supernatant (nuclear extract) was then dialyzed into storage buffer (20 mM HEPES pH 7.9, 100 mM KCl, 0.2 mM EDTA, 20% glycerol, 0.2 mM PMSF, 0.5 mM DTT). Protein concentration was determined using NanoDrop 8000 UV-Vis spectrophotometer (ThermoFisher Scientific). • d. In vitro splicing assay (IVS)
# All Ad2-derived (Pellizzoni et al., 1998) sequences were cloned into pcDNA3.1(+) vector (Promega) using 5′ EcoRI and 3′ XbaI restriction sites. The plasmids were linearized using XbaI and used as DNA templates in the in vitro transcription reactions. The FtzΔi intron-less plasmid (Luo and Reed, 1999) was linearized using EcoRI. All RNAs were in vitro transcribed and then purified using MEGAScript T7 (Invitrogen) and MegaClear (Invitrogen) kits, respectively. For splicing reactions using Ad2 variant pre-mRNAs, […] reactions were prepared using 8 μg nuclear extracts prepared from HeLa S3, 2 ng pre-mRNA, 0.2 ng FTZΔi, and varying concentrations of exemplary payloads or DMSO. After a 15 minute pre-incubation at 30° C., 1 μL splicing activation buffer (0.5 mM ATP, 20 mM creatine phosphate, 1.6 mM MgCl2) was added, and the reactions were incubated for 90 minutes at 30° C. The reactions were then quenched with 13 μL it DMSO, and 25 nL was used for RT-qPCR. RT-qPCR reactions were prepared using TaqMan RNA-to-CT 1-step kit (Life Technologies), RNA from splicing reactions, Ad2 (forward: […]; reverse: […]; probe: […]) and Ftz (forward: […]; reverse: […]; probe: […]) mRNA primer-probe sets. Prism 6 (Graphpad) was used for non-linear regression curve fitting of the formed spliced product and normalized to the control (DMSO) sample.
# [2] = system: Panc 05.04 cells (SF3b K700E mutant); assay: Cell proliferation and viability, CellTiter-Glo, 72 hours; assay type: cell-based; conditions: for GI50: geometric mean
# Protocol: (§2) Cell lines were maintained in RPMI-1640 (ATCC 30-2001) supplemented with 10% fetal bovine serum (FBS). The Panc lines were supplemented in addition with insulin and FBS up to 15% total.
# (§3) Compounds for assay were prepared as stocks in 90% dimethyl sulfoxide (DMSO), assessed for purity by LC/MS, and serially diluted in DMSO using a low-volume liquid handler (VIAFLO ASSIST and VIAFLO II electronic 16-channel pipette, 0.5-12.5 μL) in an 11-point half-log serial dilution to create a master dose response (MDR) source used for all tests.
# (§4) Transfer of compounds from the MDR source plate to cell assay-ready plates were accomplished directly by low-energy acoustic transfer (ATS100, EDC Biosystems). After transfer of compounds to the assay plate, the dose-response range experienced by cells was typically 10 μM-100 pM (5 logs), and final DMSO concentration in the assay was 0.1%, uniformly. Each assay plate was self-anchored containing vehicle/DMSO negative controls, medium-only/positive controls, and cidal control dose-responses of bortezomib and staurosporine. Assay-ready plates were heat-sealed and stored at −20° C. until used, no longer than one month.
# (§5) A DMSO-matched time zero (T0) plate was read and then all other plates were incubated at 37° C. with 5% CO2 and 95% relative humidity until the end of assay. Cell proliferation and viability assays were performed 72 hours post-treatment depending on cell growth where at least one doubling would have occurred.
# (§6) Assessment of viability and proliferation was by measurement of cell ATP content using CellTiter-Glo® Luminescent Cell Viability Assay reagent (Promega) according to the manufacturer's instructions (CellTiter-Glo® Luminescent Cell Viability Assay Technical Bulletin Instructions for Use of Product(s) G7570, G7571, G7572, G7573 Literature #TB288, Revised March 2015), using a microtiter plate reader (Envision, PE).
# (§7) Cell proliferation was evaluated using the time zero (T0) signal as the positive control and the within-plate vehicle wells (DMSO) as the negative control. Data was converted to percent inhibition and falls into the range from −100% to 100% of growth where −100% equals a cidal response and 100% equals uninhibited or maximal growth. Cell growth at or near 0% is considered a static response.
# [3] = system: NCI-H1568 cells (high MCL1); assay: as above; assay type: cell-based; conditions: for GI50: geometric mean
# Protocol: as §2, §3, §4, §5, §6, §7
# SF3b complexes = target: T1, SF3b complexes (Homo sapiens, UniProt O75533+Q7RTV0); assay: Scintillation proximity assay (SPA) with [3H]-labelled pladienolide probe; assay type: binding; conditions: SF3B1 (WT); geometric mean; read-out: SPA-ATS GMean IC50 (nM) SF3B1 (WT)
# T1 construct: endogenous in cells; host or cells: Nuclear extracts; A HeLa S3 extract preparation is described for the in vitro splicing assay
# Protocol: Scintillation Proximity Assay (SPA) with [^3-H]-Labelled Pladienolide Probe
# as §1
# [4] = Ad2.1 pre-mRNA substrate, read-out: qPCR-IVS-ATS GMean IC50 (nM) Ad2.1
# [5] = Ad2.2 pre-mRNA substrate, read-out: qPCR-IVS-ATS GMean IC50 (nM) Ad2.2
# [6] = PANC0504.1 cells, 72 h, −100% cidal, 0% static, 100% maximal growth
# [7] = Panc 05.04, read-out: CTGlo-ATS GMean GI50 (nM) 72 h PANC0504.1, PANC0504.1 cells, 72 h
# [8] = NCI-H1568, read-out: CTGlo-ATS GMean GI50 (nM) 72 h NCIH1568.1, NCIH1568.1 cells, 72 h
# [9] = NCIH1568.1 cells, 72 h, −100% cidal, 0% static, 100% maximal growth
# [10] = Panc 05.04, 72 h, read-out: CTGlo-ATS GMean GI50 (nM) 72 h PANC0504.1, PANC0504.1 cells, 72 h
# [11] = 72 h, PANC0504.1, -100% = cidal, 0% = static, 100% = uninhibited growth
# [12] = Panc 05.04, 72 h, read-out: CTGlo-ATS GMean GI50 (nM) 72 h PANC0504.1, 72 h, PANC0504.1
# [13] = 72 h, NCIH1568.1, -100% = cidal, 0% = static, 100% = uninhibited growth
# [14] = NCI-H1568, 72 h, read-out: CTGlo-ATS GMean GI50 (nM) 72 h NCIH1568.1, 72 h, NCIH1568.1
SMILES,"IC50 [1, 4]","IC50 [1, 5]","CTGlo-ATS Mean MinResponse % 72 h PANC0504.1 [2, 6]","GI50 [2, 7]","GI50 [3, 8]","CTGlo-ATS Mean MinResponse % 72 h NCIH1568.1 [3, 9]","GI50 [2, 10]",Ratio Ad2.1/2.2 [1],"CTGlo-ATS Mean MinResponse % 72 h PANC0504.1 [2, 11]","GI50 [2, 12]","CTGlo-ATS Mean MinResponse % 72 h NCIH1568.1 [3, 13]","GI50 [3, 14]",IC50 (SF3b complexes),"GI50 ([3]; NCI-H1568, 72 h, read-out: CTGlo-ATS GMean GI50 (nM) 72 h NCIH1568.1, NCIH1568.1 cells, 72 h)"
C/C(=C\c1cc(F)cc(N2CCOCC2)c1)[C@H]1OC(=O)C[C@H](O)CC[C@H](C)[C@@H](OC(=O)N(C)Cc2ccncc2)/C=C/[C@@H]1C [Compound 47],16900 nM,79.6 nM,−87.783%,78.2 nM,66.5 nM,−44.494%,,,,,,,,
C/C(=C\c1ccc(F)c(N2CCOCC2)c1)[C@H]1OC(=O)C[C@H](O)CC[C@H](C)[C@@H](OC(=O)N2CCN(C)CC2)/C=C/[C@@H]1C [Compound 8],14200 nM,42.2 nM,−94.207%,,,,19.3 nM,,,,,,,
"C/C(=C\c1cccc(COC(=O)N2CCC(O)CC2)c1)[C@H]1OC(=O)C[C@H](O)CC[C@H](C)[C@@H](OC(=O)N2CCN(C)CC2)/C=C/[C@@H]1C [Compound 261, [(2S,3S,4E,6R,7S,10R)-10-hydroxy-2-[(E)-1-[3-[(4-hydroxypiperidine-1-carbonyl)oxymethyl]phenyl]prop-1-en-2-yl]-3,7-dimethyl-12-oxo-1-oxacyclododec-4-en-6-yl] 4-methylpiperazine-1-carboxylate]",23300 nM,76.6 nM,,,,,,304.222,−89.906%,32.3 nM,−36.811%,57.6 nM,,
"C/C(=C\c1ccc(S(=O)(=O)NC2CC2)c(F)c1)[C@H]1OC(=O)C[C@H](O)CC[C@H](C)[C@@H](OC(=O)N2CCN(C)CC2)/C=C/[C@@H]1C [Compound 90, [(2S,3S,4E,6R,7S,10R)-2-[(E)-1-[4-(cyclopropylsulfamoyl)-3-fluorophenyl]prop-1-en-2-yl]-10-hydroxy-3,7-dimethyl-12-oxo-1-oxacyclododec-4-en-6-yl] 4-methylpiperazine-1-carboxylate]",> 25000 nM,168 nM,−12.315%,141 nM,107 nM,−8.495%,,,,,,,,
C/C(=C\c1cc(F)c2nnn(CC3CCOCC3)c2c1)[C@H]1OC(=O)C[C@H](O)CC[C@H](C)[C@@H](OC(=O)N2CCN(C)CC2)/C=C/[C@@H]1C [Compound 148],,,,,1.42 nM,−85.010%,,,,,,,2.24 nM,
"C/C(=C\c1cc(F)cc(N2CCN(C(=O)Cn3cccn3)CC2)c1)[C@H]1OC(=O)C[C@H](O)CC[C@H](C)[C@@H](OC(=O)N2CCC(N(C)C)C2)/C=C/[C@@H]1C (stereo in doubt) [Compound 227, [(2S,3S,4E,6R,7S,10R)-2-[(E)-1-[3-fluoro-5-[4-(2-pyrazol-1-ylacetyl)piperazin-1-yl]phenyl]prop-1-en-2-yl]-10-hydroxy-3,7-dimethyl-12-oxo-1-oxacyclododec-4-en-6-yl] (3S)-3-(dimethylamino)pyrrolidine-1-carboxylate]",,,,,,,,,,,−81.522%,2.37 nM,3.25 nM,
"C/C(=C\c1cccc(COC(=O)N2CCCC2CO)c1)[C@H]1OC(=O)C[C@H](O)CC[C@H](C)[C@@H](OC(=O)N2CCN(C)CC2)/C=C/[C@@H]1C (stereo in doubt) [Compound 259, [(2S,3S,4E,6R,7S,10R)-10-hydroxy-2-[(E)-1-[3-[[(2R)-2-(hydroxymethyl)pyrrolidine-1-carbonyl]oxymethyl]phenyl]prop-1-en-2-yl]-3,7-dimethyl-12-oxo-1-oxacyclododec-4-en-6-yl] 4-methylpiperazine-1-carboxylate]",> 25000 nM,83.1 nM,,,,,,300.977,−86.489%,31.5 nM,−43.329%,133 nM,,
C/C(=C\c1cc(F)cc(N2CCC(O)CC2)c1)[C@H]1OC(=O)C[C@H](O)CC[C@H](C)[C@@H](OC(=O)N2CCN(C)CC2)/C=C/[C@@H]1C [Compound 30],19.1 nM,11 nM,−75.997%,,,−78.664%,7.02 nM,,,,,,,5.89 nM
